# Assay results from US8871767B2, “2-arylimidazo[1,2-B]pyridazine, 2-phenylimidazo[1,2-A]pyridine, and 2-phenylimidazo[1,2-A]pyrazine derivatives” (Hengrui (USA) Ltd., priority 2010, dated 2014).
# Like-named read-outs stand apart in the source and are kept apart here.
# Assays:
# [1] = test system: Hedgehog pathway activation (GLi-luciferase reporter) in Shh Light II reporter cells; experiment: Hedgehog pathway activation on Shh Light II reporter cells measured by luciferase activity; format: cell-based; conditions: Mus musculus, Shh Light II
# Summary of the method: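 Shh Light II reporter cells carrying a hedgehog-responsive GLi-luciferase reporter were stimulated either with 500 nM SAG, a direct Smoothened agonist, or with conditioned media containing human Sonic Hedgehog (hShh). Test compounds were evaluated for blocking this pathway activation, quantified by luciferase activity. Cell viability was monitored in parallel with the Celltiter-Blue® assay.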
# [2] = test system: Hedgehog pathway activation on 10T1/2/Smo#3 cells (C3H10T1/2 cells transfected with human Smoothened receptor); experiment: Hedgehog pathway activation on 10T1/2/Smo#3 cells measured by ALP activity; format: cell-based; conditions: Mus musculus, C3H 10T1/2, 10T1/2/Smo#3 cells
# Summary of the method: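 C3H10T1/2 cells stably expressing human Smoothened were activated with hShh-conditioned medium (10-20%) or 500 nM SAG, with test compounds present. Pathway block read as inhibited ALP activity (4-methylumbelliferyl phosphate fluorescence); viability checked by CellTiter-Blue. IC50 values reported.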
# [3] = hShh activation, read-out: Shh (IC50, inhibition of Hedgehog pathway activation)
# [4] = measured by ALP activity, read-out: ALP (IC50, inhibition of Hedgehog pathway activation)
# [5] = SAG activation (500 nM SAG), read-out: Shh Light II luciferase activity (SAG activation)
# [6] = hShh activation, read-out: Shh Light II luciferase activity (hShh activation)
# [7] = hShh activation, ALP activity, read-out: 10T1/2/Smo#3 ALP activity (hShh Activation)
"IC50 [1, 3] [nM]","IC50 [2, 4] [nM]","IC50 [1, 5] [nM]","IC50 [1, 6] [nM]","IC50 [2, 7] [nM]",Compound
103,578,,,,"CCc1ccc(-c2cn3nc(-c4cccnc4C(F)(F)F)ccc3n2)cc1NC(=O)C1CCCC1 [Example 688, N-(2-ethyl-5-(6-(2-(trifluoromethyl)pyridin-3-yl)imidazo[1,2-b]pyridazin-2-yl)phenyl)cyclopentanecarboxamide]"
107,138,,,,"Cc1cc(Cl)c(-c2cn3nc(N4CC[C@@H](O)C4)ccc3n2)cc1NC(=O)C(C)(C)C [Example 640, (R)—N-(4-chloro-5-(6-(3-hydroxypyrrolidin-1-yl)imidazo[1,2-b]pyridazin-2-yl)-2-methylphenyl)pivalamide]"
> 10000,3930,,,,"COc1cc(CNc2cc(-c3cn4nc(OC)ccc4n3)ccc2C)cc(OC)c1 [Example 103, N-(3,5-dimethoxybenzyl)-5-(6-methoxyimidazo[1,2-b]pyridazin-2-yl)-2-methylaniline]"
352,400,,,,"C[C@@H]1CCCC[C@H]1Oc1ccc2nc(-c3ccc(C(F)(F)F)c(NC(=O)C(C)(C)C)c3)cn2n1 [Example 464, N-(5-(6-((1R,2R)-2-methylcyclohexyloxy)imidazo[1,2-b]pyridazin-2-yl)-2-(trifluoromethyl)phenyl)pivalamide]"
10,2,< 300,< 300,< 300,"Cc1ccc(-c2cn3nc(-c4ccc(/C(N)=N/O)cc4C(F)(F)F)ccc3n2)cc1NC(=O)C(C)(C)C [compound 511, N-(5-(6-(4-(N′-hydroxycarbamimidoyl)-2-(trifluoromethyl)phenyl)imidazo[1,2-b]pyridazin-2-yl)-2-methylphenyl)pivalamide]"
788,1010,,,,"Cc1ccc(-c2cn3nc(N4CCS(=O)(=O)CC4)ccc3n2)cc1NC(=O)C(C)(C)C [Example 285, N-{5-[6-(1,1-dioxidothiomorpholin-4-yl)imidazo[1,2-b]pyridazin-2-yl]-2-methylphenyl}-2,2-dimethylpropanamide]"
794,578,,,,"Cc1ccc(-c2cn3nc(-c4cscn4)ccc3n2)cc1NC(=O)C(C)(C)C [Example 445, N-(2-methyl-5-(6-(thiazol-4-yl)imidazo[1,2-b]pyridazin-2-yl)phenyl)pivalamide]"
140,1080,,,,"Cc1ccc(-c2cn3nc(-c4cccnc4C(F)(F)F)ccc3n2)cc1NC(=O)CCCCCCC(=O)NOC1CCCCO1 (stereo not drawn) [compound 557, N1-(2-methyl-5-(6-(2-(trifluoromethyl)pyridin-3-yl)imidazo[1,2-b]pyridazin-2-yl)phenyl)-N8-((tetrahydro-2H-pyran-2-yl)oxy)octanediamide]"
1110,1810,3000 to 30000,300 to 3000,300 to 3000,"Cc1ccc(-c2cn3ncccc3n2)cc1NC(=O)C(C)(C)C [Example 105, N-(5-(imidazo[1,2-b]pyridazin-2-yl)-2-methylphenyl)pivalamide]"
,,300 to 3000,3000 to 30000,300 to 3000,"COc1ccc2nc(-c3ccc(C)c(NC(=O)C(C)(C)C)c3)cn2n1 [Example 4, N-(5-(6-methoxyimidazo[1,2-b]pyridazin-2-yl)-2-methylphenyl)pivalamide]"
,1860,< 300,< 300,< 300,"COc1ccc2nc(-c3ccc(OC(F)(F)F)c(NC(=O)C(C)(C)C)c3)cn2n1 [Example 247, N-(5-(6-methoxyimidazo[1,2-b]pyridazin-2-yl)-2-(trifluoromethoxy)phenyl)pivalamide]"
1490,> 10000,,,,"COc1ccc2nc(-c3cc(NC(=O)C(C)(C)C)c(C)cc3Cl)cn2n1 [Example 132, N-(4-chloro-5-(6-methoxyimidazo[1,2-b]pyridazin-2-yl)-2-methylphenyl)pivalamide]"
